Measured values published in ChEMBL document CHEMBL4665913, “Discovery of CA-4948, an Orally Bioavailable IRAK4 Inhibitor for Treatment of Hematologic Malignancies” (ACS Med Chem Lett, 2020).

Key:
[1] = Metabolic stability in rat liver microsomes assessed as parent compound remaining at 1 uM measured upto 60 mins in presence of NADPH by LC-MS/MS analysis; type: ADME, Microsome; conditions: read-out: Stabilty
[2] = Metabolic stability in human liver microsomes assessed as parent compound remaining at 1 uM measured upto 60 mins in presence of NADPH by LC-MS/MS analysis; type: ADME, Microsome; conditions: read-out: Stabilty
[3] = Metabolic stability in mouse liver microsomes assessed as parent compound remaining at 1 uM measured upto 60 mins in presence of NADPH by LC-MS/MS analysis; type: ADME, Microsome; conditions: read-out: Stabilty
[4] = in vitro; conditions: human, Caco-2

remaining at 1 h, 1 µM [1] | remaining at 1 h, 1 µM [2] | remaining at 1 h, 1 µM [3] | Papp A→B at 2 h, 10 µM [4] | SMILES
68% | 69% | 50% |  | Cc1cc(-c2nc(C(=O)Nc3cc4oc(N5CCOCC5)nc4nc3N3CCC(F)CC3)co2)ccn1
> 95% | > 95% | > 95% | 13.5 ×10⁻⁶ cm/s | Cc1cc(-c2nc(C(=O)Nc3cc4oc(N5CCOCC5)nc4nc3N3CCC(O)CC3)co2)ccn1
95% | 95% | 88% | 54.2 ×10⁻⁶ cm/s | Cc1cc(-c2nc(C(=O)Nc3cc4oc(N5CCOCC5)nc4nc3N3CC[C@@H](F)C3)co2)ccn1

Further lines, the compound ahead of its results:

SMILES | remaining at 1 h, 1 µM [1] | remaining at 1 h, 1 µM [2] | remaining at 1 h, 1 µM [3] | Papp A→B at 2 h, 10 µM [4]
O=C(Nc1cc2oc(N3CCOCC3)nc2nc1C1CC1)c1coc(N2CC[C@H](O)C2)n1 | > 95% | 90% | > 95% | 21 ×10⁻⁶ cm/s
Cc1cc(-c2nc(C(=O)Nc3cc4oc(N5CCOCC5)nc4nc3N3CCCC(F)C3)co2)ccn1 (stereo not drawn) | 91% | 67% | 89% | 15.8 ×10⁻⁶ cm/s
Cc1cc(-c2nc(C(=O)Nc3cc4oc(N5CCOCC5)nc4nc3C3CC3)co2)ccn1 | > 95% | 87% | 13% | 49.4 ×10⁻⁶ cm/s
